The first test addresses T1, BRD4(BD1) (Homo sapiens, UniProt O60885). Briefly: Isothermal Titration Calorimetry. Format: binding. To be noted: ITC; read-out: Binding affinity (Kd) to BRD4(1) by Isothermal Titration Calorimetry. The procedure: FIG. 1. Isothermal Titration Calorimetry (ITC) of 43c. Thermogram (top) and non-linear least squares fit model of the integrated data (bottom) at 15° C. of Brd4 (BD1) […] as a function of the molar ratio of ligand to the protein.
ITC was used to evaluate the thermodynamics parameters of the binding between BRD4 (BD1) and the selected compounds. Titrations were carried out on a MicroCal ITC200 microcalorimeter (GE Healthcare, Piscataway, N.J.). Each experiment was designed using a titrant concentration (protein in the syringe generally between 100 and 400 μM) set 10 to 15 times the analyte concentration (compound in the cell generally between 10 and 40 μM) and using 13 injections at 25° C. A first small injection (generally 0.2 μL) was included in the titration protocol in order to remove air bubbles trapped in the syringe prior titration. Raw data were scaled after setting the zero to the titration saturation heat value. Integrated raw ITC data were fitted to a one site non-linear least squares fit model using the MicroCal Origin plugin as implemented in Origin 7 (Origin Lab). Finally, ΔG and TΔS values were calculated from the fitted ΔH and KA values using the equations ΔG=−R.T.inKA and ΔG=ΔH−TΔS.
T3 sequence (P25440 344-453 limits assumed): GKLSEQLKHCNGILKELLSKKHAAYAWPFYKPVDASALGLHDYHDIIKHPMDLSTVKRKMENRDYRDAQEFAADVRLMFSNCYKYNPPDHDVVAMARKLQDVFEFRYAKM
For the compound `Cc1noc(C)c1CNC(=O)c1ccc(CNS(=O)(=O)c2ccc3c(c2)CCCC(=O)N3)cc1` [Compound 15c], the Kd worked out at 2.2 µM.

With `Cc1noc(C)c1CCNC(=O)c1ccc(CNS(=O)(=O)c2ccc3c(c2)CCCC(=O)N3)cc1` [Compound 16a], the Kd was 5.8 µM.

For the compound `CCn1cnc2c1c(=O)[nH]c(=O)n2Cc1ccc(CNC(=O)c2ccc(Cn3cccc3)cc2)cc1` [Compound 33a], the Kd was 20.5 µM.

In the case of `CCn1cnc2c1c(=O)[nH]c(=O)n2Cc1ccc(CNS(=O)(=O)c2ccc(OC3CCOCC3)cc2)cc1` [Compound 43b], the Kd was 0.11 µM.

The next test concerns the target T2, Brd4(BD2) (Homo sapiens, UniProt O60885).
T2 construct: GST tagged bromodomain proteins were purchased from BPS Bioscience; purchased BPS Bioscience
Nature of the test: HTRF BET selectivity profile, Brd4(BD2). It counts as binding.
Conditions: not given
The procedure:
(§1) HTRF assays were performed in white 384 Well Small Volume™ HiBase Polystyrene Microplates (Greiner) with a total working volume of 20 μL. Compounds were dispensed, with 100 nL per well (0.5% final DMSO), from a concentration stock of 10 mM in 100% DMSO and with serial DMSO dilutions, using an Echo® 550 robot from the Access Labcyte platform (Labcyte) and based on the transfer of liquid by acoustic wave. Then, 19.5 μL of buffer is added, using a Multidrop Combi (Thermo Fisher Scientific). Finally, for each assay, 200 nL of master mix (protein+donor+acceptor) and 200 nL of peptide Is added in the assay wells according to the final concentration and buffer described in Table 3, using the Echo® 550 robot (Labcyte). The IC50 measurements were performed in triplicates (Table 2 and 3). All HTRF reagents (donor and acceptor) were purchased from CisBio Bioassays and reconstituted according to the supplier protocols. The peptide was purchased from Genic Bio Synthetic. The BRD4(1) protein was produced and purified in the laboratory. HTRF signals were measured, after a final incubation (3 h or 6 h or overnight at room temperature or 4° C., according to the bromodomain), using a PHERAstar FS (BMG Labtech) with an excitation filter at 337 nm and fluorescence wavelength measurement at 620 and 665 nm, an integration delay of 60 μs and an integration time of 500 μs. Results were analyzed with a two-wavelengths signal ratio: [intensity (665 nm)/intensity (620 nm)]*104.
(§2) Percentage of inhibition was calculated using the following equation: % inhibition=[(compound signal)−(min signal)]/[(max signal)−(min signal)]*100, where ‘max signal’ is the signal ratio with the compound vehicle alone (DMSO) and ‘min signal’ the signal ratio without peptide.
(§3) Selectivity profiles of bromodomain inhibitors were performed as described in HTRF screen section. […] HTRF detection reagents (EPIgeneous™ Binding Domain kits) were purchased from Cisbio Bioassays and used according to supplier's protocol. GST tagged bromodomain proteins were purchased from BPS Bioscience and histone peptide from Genic Bio Synthetic.
For orientation: TR-FRET usually uses a lanthanide donor and a delayed reading to cut background.
For `CCn1cnc2c1c(=O)[nH]c(=O)n2Cc1ccc(CNS(=O)(=O)c2ccc(OC3CCOCC3)cc2)cc1` [Compound 43b], it took 3.3 µM to reach half-maximal inhibition (IC50).

The next test concerns the target T3, Brd2(BD2) (Homo sapiens, UniProt P25440).
T3 construct: GST tagged bromodomain proteins were purchased from BPS Bioscience; purchased BPS Bioscience
Briefly: HTRF BET selectivity profile, Brd2(BD2). It counts as binding. The conditions noted are these: read-out: Brd2(BD2) IC50. The procedure: (§4) HTRF assays were performed in white 384 Well Small Volume™ HiBase Polystyrene Microplates (Greiner) with a total working volume of 20 μL. Compounds were dispensed, with 100 nL per well (0.5% final DMSO), from a concentration stock of 10 mM in 100% DMSO and with serial DMSO dilutions, using an Echo® 550 robot from the Access Labcyte platform (Labcyte) and based on the transfer of liquid by acoustic wave. Then, 19.5 μL of buffer is added, using a Multidrop Combi (Thermo Fisher Scientific). […] All HTRF reagents (donor and acceptor) were purchased from CisBio Bioassays and reconstituted according to the supplier protocols. The peptide was purchased from Genic Bio Synthetic. The BRD4(1) protein was produced and purified in the laboratory.
as §2, §3
Regarding `CCn1cnc2c1c(=O)[nH]c(=O)n2Cc1ccc(CNS(=O)(=O)c2ccc(OC3CCOCC3)cc2)cc1` [Compound 43b], the IC50 turned out to be 2.4 µM.

Another test deals with T4, Brd2(BD1) (Homo sapiens, UniProt P25440).
T4 construct: GST tagged bromodomain proteins were purchased from BPS Bioscience; purchased BPS Bioscience
T4 sequence (P25440 74-180 limits assumed): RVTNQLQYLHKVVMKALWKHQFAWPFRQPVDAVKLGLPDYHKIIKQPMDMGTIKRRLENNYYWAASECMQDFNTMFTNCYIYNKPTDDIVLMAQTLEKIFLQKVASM
Briefly: HTRF BET selectivity profile, Brd2(BD1). It counts as binding. To be noted: read-out: Brd2(BD1) IC50. The procedure: as §4, §2, §3
On to `Cc1noc(C)c1CCNC(=O)c1ccc(CNS(=O)(=O)c2ccc3c(c2)CCCC(=O)N3)cc1` [Compound 16a], for which the IC50 stood at 8.7 µM.

As to `CCn1cnc2c1c(=O)[nH]c(=O)n2Cc1ccc(CNS(=O)(=O)c2ccc(OC3CCOCC3)cc2)cc1` [Compound 43b], the IC50 worked out at 0.26 µM.

Staying with this test, now noted: selectivity Brd2(BD1) vs Brd2(BD2), HTRF IC50.
Regarding `Cc1noc(C)c1CCNC(=O)c1ccc(CNS(=O)(=O)c2ccc3c(c2)CCCC(=O)N3)cc1` [Compound 16a], the “Ratio 2-1 vs 2-2” value is on record as more than 6.

Consider `CCn1cnc2c1c(=O)[nH]c(=O)n2Cc1ccc(CNS(=O)(=O)c2ccc(OC3CCOCC3)cc2)cc1` [Compound 43b], for which the “Ratio 2-1 vs 2-2” value came out at 9.

The target in the next test is T5, Brd3(BD2) (Homo sapiens, UniProt Q15059).
T5 construct: GST tagged bromodomain proteins were purchased from BPS Bioscience; purchased BPS Bioscience
T5 sequence (Q15059 306-415 limits assumed): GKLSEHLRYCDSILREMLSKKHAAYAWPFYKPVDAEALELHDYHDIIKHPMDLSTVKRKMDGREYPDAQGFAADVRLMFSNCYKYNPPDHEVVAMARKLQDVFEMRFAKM
Briefly: HTRF BET selectivity profile, Brd3(BD2). Format: binding.
Conditions: not given
The procedure:
as §1, §2, §3
In turn, `CCn1cnc2c1c(=O)[nH]c(=O)n2Cc1ccc(CNS(=O)(=O)c2ccc(OC3CCOCC3)cc2)cc1` [Compound 43b] gave an IC50 of 2.9 µM.

Another test has as its target T1, BRD4(BD1). Nature of the test: HTRF assay, BRD4(BD1)/histone peptide interaction. Format: binding. The arrangement: made in house. The conditions noted are these: HTRF; mean of three experiments; NA = IC50 > 50 μM; read-out: Brd4(8D1) IC50. The procedure: as §4, §2, §3
As for `Cc1noc(C)c1CCNC(=O)c1ccc(CNS(=O)(=O)c2ccc3c(c2)CCCC(=O)N3)cc1` [Compound 16a], the IC50 was 10.9 µM.

For the compound `CCn1cnc2c1c(=O)[nH]c(=O)n2Cc1ccc(CNS(=O)(=O)c2ccc(OC3CCOCC3)cc2)cc1` [Compound 43b], the IC50 worked out at 0.096 µM.

Still in this test, the particulars now being: HTRF; triplicates; NA = IC50 > maximal concentration of compound used.
Consider `Cc1noc(C)c1CNC(=O)c1ccc(CNS(=O)(=O)c2ccc3c(c2)CCCC(=O)N3)cc1` [Compound 15c], for which the IC50 amounted to 7.8 µM.

`Cc1noc(C)c1CCNC(=O)c1ccc(CNS(=O)(=O)c2ccc3c(c2)CCCC(=O)N3)cc1` [Compound 16a]: 11 µM corresponded to half-maximal inhibition (IC50).

The compound `CCn1cnc2c1c(=O)[nH]c(=O)n2Cc1ccc(CNC(=O)c2ccc(Cn3cccc3)cc2)cc1` [Compound 33a] yielded an IC50 of 0.371 µM.

As to `CCn1cnc2c1c(=O)[nH]c(=O)n2Cc1ccc(CNS(=O)(=O)c2ccc(OC3CCOCC3)cc2)cc1` [Compound 43b], the IC50 turned out to be 0.096 µM.

Staying with this test, now noted: selectivity Brd4(BD1) vs Brd4(BD2), HTRF IC50.
Consider `Cc1noc(C)c1CCNC(=O)c1ccc(CNS(=O)(=O)c2ccc3c(c2)CCCC(=O)N3)cc1` [Compound 16a], for which the “Ratio 4-1 vs 4-2” value was more than 5.

For the compound `CCn1cnc2c1c(=O)[nH]c(=O)n2Cc1ccc(CNS(=O)(=O)c2ccc(OC3CCOCC3)cc2)cc1` [Compound 43b], the “Ratio 4-1 vs 4-2” value was found to be 34.

Another test deals with T6, Brdt(BD1) (Homo sapiens, UniProt Q58F21).
T6 construct: GST tagged bromodomain proteins were purchased from BPS Bioscience; purchased BPS Bioscience
Briefly: HTRF BET selectivity profile, Brdt(BD1). Format: binding.
Conditions: not given
The procedure: as §1, §2, §3
The compound `Cc1noc(C)c1CCNC(=O)c1ccc(CNS(=O)(=O)c2ccc3c(c2)CCCC(=O)N3)cc1` [Compound 16a] showed an IC50 of 12.5 µM.

As for `CCn1cnc2c1c(=O)[nH]c(=O)n2Cc1ccc(CNS(=O)(=O)c2ccc(OC3CCOCC3)cc2)cc1` [Compound 43b], the IC50 worked out at 1.1 µM.

The target of the next test is Brd3(BD1) (Homo sapiens, UniProt Q15059). Nature of the test: HTRF BET selectivity profile, Brd3(BD1). It counts as binding.
Brd3(BD1), sequence (Q15059 34-140 limits assumed): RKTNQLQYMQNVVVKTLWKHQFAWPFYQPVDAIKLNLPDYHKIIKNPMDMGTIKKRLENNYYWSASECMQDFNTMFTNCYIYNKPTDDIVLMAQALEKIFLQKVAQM
Conditions: not given
The arrangement: GST tagged bromodomain proteins were purchased from BPS Bioscience; purchased BPS Bioscience. The procedure: as §4, §2, §3
Turning to `Cc1noc(C)c1CCNC(=O)c1ccc(CNS(=O)(=O)c2ccc3c(c2)CCCC(=O)N3)cc1` [Compound 16a], it took 8.62 µM to reach half-maximal inhibition (IC50).

For `CCn1cnc2c1c(=O)[nH]c(=O)n2Cc1ccc(CNS(=O)(=O)c2ccc(OC3CCOCC3)cc2)cc1` [Compound 43b], the IC50 is 0.13 µM.

Staying with this test, now noted: selectivity Brd3(BD1) vs Brd3(BD2), HTRF IC50.
On to `Cc1noc(C)c1CCNC(=O)c1ccc(CNS(=O)(=O)c2ccc3c(c2)CCCC(=O)N3)cc1` [Compound 16a], for which the “Ratio 3-1 vs 3-2” value was more than 6.

With `CCn1cnc2c1c(=O)[nH]c(=O)n2Cc1ccc(CNS(=O)(=O)c2ccc(OC3CCOCC3)cc2)cc1` [Compound 43b], the “Ratio 3-1 vs 3-2” value came out at 22.

What is called IC50 is the midpoint of a concentration-inhibition curve.

(Values after patent publication US11180510B2, “Xanthine derivatives and uses thereof as inhibitors of bromodomains of BET proteins” (Centre national de la recherche scientifique, priority 2017, dated 2021).)
